The target of the assay is T1, human glucagon receptor (Homo sapiens, UniProt P47871).
T1 construct: expressed in transfected cells; host or cells: membranes of BHK cells, clone BHK hGCGR A3*25
Put plainly: Assay (I)(b) glucagon receptor activation, CRE luciferase reporter gene assay in BHK cells. In kind it is cell-based. To be noted: without presence of serum albumin; read-out: GlucagonR EC50 (pM), [Assay (I)(b)]. Here is the method:
The purpose of this example was to test the activity or potency, of the glucagon derivatives of the invention, in vitro. The in vitro potency is the measure of human GLP-1 receptor (GLP-1R) or glucagon receptor (glucagonR) activation, respectively, in a whole cell assay. In vitro potency was determined by measuring the response of human GLP-1 or glucagon receptor, respectively, in a reporter gene assay. The assay was performed in a stably transfected BHK cell line that expresses either the human GLP-1 receptor or the human glucagon receptor and contains the DNA for the cAMP response element (CRE) coupled to a promoter and the gene for firefly luciferase (CRE luciferase). […] When assay incubation was completed, the luciferase substrate (luciferin) was added and the enzyme converted luciferin to oxyluciferin and produces bioluminescence. The luminescence was measured as the readout for the assay. The cells used in this assay (clone pLJ6′-4-25) were BHK cells with BHK570 as a parent cell line expressing the CRE luciferase gene (clone BHK/KZ10-20-48) and were established by further transfection with the human glucagon receptor (clone pLJ6′ in pHZ-1 vector). The cells were cultured at 5% CO2 in DMEM medium with 10% FBS, 1×GlutaMAX, 1 mg/ml G418, 240 nM MTX (methotrexate) and 1% pen/strep (penicillin/streptomycin). They were aliquoted and stored in liquid nitrogen. Before each assay, an aliquot was taken up and washed three times in PBS before being suspended at the desired concentration in assay medium. For 96-well plates the suspension was made to give a final concentration of 5×10EE3 cells/well. The following chemicals were used in the assay: Pluronic F-68 (10%) (Gibco 2404), ovalbumin (Sigma A5503), DMEM w/o phenol red (Gibco 11880-028), 1 M Hepes (Gibco 15630), Glutamax 100× (Gibco 35050) and steadylite plus (PerkinElmer 6016757). Assay Medium consisted of DMEM w/o phenol red, 10 mM Hepes, 1× GlutaMAX, 2% Ovalbumin and 0.2% Pluronic F-68. Cell stocks were thawed in a 37° C. water bath. Cells were washed three times in PBS. The cells were counted and adjusted to 5×10EE3 cells/50 μl (1×10EE5 cells/ml) in Assay Medium. A 50 μl aliquot of cells was transferred to each well in the assay plate. Stocks of the test compounds and reference compounds were diluted to a concentration of […] in Assay Medium. Compounds were diluted 10-fold to give the following concentrations: 2×10EE-6 M, 2×10EE-7 M, 2×10EE-8 M; 2×10EE-9 M, 2×10EE-10 M, 2×10EE-11 M, 2×10EE-12 M and 2×10EE-13 M. For each compound a blank assay medium control was also included. A 50 μl aliquot of compound or blank was transferred from the dilution plate to the assay plate. Compounds were tested at the following final concentrations: 1×10EE-6 M, 1×10EE-7 M, 1×10EE-8 M; 1×10EE-9 M, 1×10EE-10 M, 1×10EE-11 M and 1×10EE-12 M and 1×10EE-13 M. The assay plate was incubated for 3 h in a 5% CO2 incubator at 37° C. The assay plate was removed from the incubator and allowed to stand at room temperature for 15 min. A 100 μl aliquot of steadylite plus reagent was added to each well of the assay plate (reagent is light sensitive). Each assay plate was covered with aluminum foil to protect it from light and shaken for 30 min at room temperature. Each assay plate was read in a Perkin Elmer TopCount NXT instrument. The data from the TopCount instrument was transferred to GraphPad Prism software. The software performed a non-linear regression (log(agonist) vs response-Variable slope (four parameter)). EC50 values were calculated by the software and reported in pM.
A general note: Reporter assays use an easily measured gene product as a stand-in for the process of interest.

Molecules are shown by their SMILES. Starred links: 1 amine or outer side, 2 acyl side, 3 side chain; linkers in the order of their positions; H or OH if unused. Non-standard residues stand in square brackets, D forms with d. Residues, ends and D or L forms follow the SMILES beside them. Groups on a side chain read outwards from the residue. *: point of attachment. C18 diacid = O=C(O)CCCCCCCCCCCCCCCCC(=O)*; γGlu = O=C(O)[C@H](CCC(=O)[*:2])N[*:1]; Ac4c = NC1(C(=O)O)CCC1; AEEA = NCCOCCOCC(=O)O; Aib = CC(C)(N)C(=O)O

T1 sequence (P47871 26-477): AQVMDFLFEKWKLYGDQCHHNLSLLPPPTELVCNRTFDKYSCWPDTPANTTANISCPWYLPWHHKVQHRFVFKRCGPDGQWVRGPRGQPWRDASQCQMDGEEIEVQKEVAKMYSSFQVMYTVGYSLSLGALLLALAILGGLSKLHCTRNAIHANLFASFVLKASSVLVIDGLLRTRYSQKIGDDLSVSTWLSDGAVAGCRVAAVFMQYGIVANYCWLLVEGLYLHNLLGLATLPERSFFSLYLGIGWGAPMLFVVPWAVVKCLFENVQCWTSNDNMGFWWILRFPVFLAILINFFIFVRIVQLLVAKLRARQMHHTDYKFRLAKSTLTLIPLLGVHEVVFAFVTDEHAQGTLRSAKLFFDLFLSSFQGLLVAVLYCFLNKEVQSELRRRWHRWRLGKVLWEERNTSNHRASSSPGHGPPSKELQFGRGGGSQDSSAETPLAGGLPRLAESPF

Turning to `CC[C@H](C)[C@H](NC(=O)[C@H](CC(C)C)NC(=O)[C@H](Cc1c[nH]c2ccccc12)NC(=O)[C@H](C)NC(=O)[C@@H](NC(=O)[C@H](Cc1ccccc1)NC(=O)[C@H](CC(=O)O)NC(=O)[C@H](CCCNC(=N)N)NC(=O)[C@H](C)NC(=O)[C@H](CCCNC(=N)N)NC(=O)[C@H](CCCNC(=N)N)NC(=O)[C@H](C)NC(=O)[C@H](CC(=O)O)NC(=O)[C@H](CC(C)C)NC(=O)[C@H](Cc1ccc(O)cc1)NC(=O)[C@H](CCCCN)NC(=O)[C@H](CO)NC(=O)[C@H](Cc1ccc(O)cc1)NC(=O)[C@H](CC(=O)O)NC(=O)[C@H](CO)NC(=O)[C@@H](NC(=O)[C@H](Cc1ccccc1)NC(=O)[C@@H](NC(=O)CNC(=O)[C@H](CCC(N)=O)NC(=O)C(C)(C)NC(=O)[C@@H](N)Cc1c[nH]cn1)[C@@H](C)O)[C@@H](C)O)C(C)C)C(=O)N[C@@H](CCCCNC(=O)CC[C@H](NC(=O)CC[C@H](NC(=O)COCCOCCNC(=O)COCCOCCNC(=O)CC[C@H](NC(=O)CCCCCCCCCCCCCCCCC(=O)O)C(=O)O)C(=O)O)C(=O)O)C(=O)N[C@H](C(N)=O)[C@@H](C)O` [Chem. 32, N^ε28-[(4S)-4-carboxy-4-[[(4S)-4-carboxy-4-[[2-[2-[2-[[2-[2-[2-[[(4S)-4-carboxy-4-(17-carboxyheptadecanoylamino)butanoyl]amino]ethoxy]ethoxy]acetyl]amino]ethoxy]ethoxy]acetyl]amino]butanoyl]amino]butanoyl]-[Aib2,Ala16,Arg20,Ala24,Ile27,Lys28]-Glucagon amide] (H-H[Aib]QGTFTSDYSKYLDARRARDFVAWLIK([γGlu-γGlu-AEEA-AEEA-γGlu-C18 diacid])T-NH2), the EC50 (usually the midpoint of the concentration-response curve) was determined as 7 pM.

With `CC[C@H](C)[C@H](NC(=O)[C@H](CC(C)C)NC(=O)[C@H](Cc1c[nH]c2ccccc12)NC(=O)[C@H](C)NC(=O)[C@@H](NC(=O)[C@H](Cc1ccccc1)NC(=O)[C@H](CC(=O)O)NC(=O)[C@H](CCC(N)=O)NC(=O)[C@H](C)NC(=O)[C@H](CCCNC(=N)N)NC(=O)[C@H](CCCNC(=N)N)NC(=O)[C@H](CO)NC(=O)[C@H](CCC(=O)O)NC(=O)[C@H](CC(C)C)NC(=O)[C@H](Cc1ccc(O)cc1)NC(=O)[C@H](CCCCN)NC(=O)[C@H](CO)NC(=O)[C@H](Cc1ccc(O)cc1)NC(=O)[C@H](CC(=O)O)NC(=O)[C@H](CO)NC(=O)[C@@H](NC(=O)[C@H](Cc1ccccc1)NC(=O)[C@@H](NC(=O)CNC(=O)[C@H](CCC(N)=O)NC(=O)C(C)(C)NC(=O)[C@@H](N)Cc1c[nH]cn1)[C@@H](C)O)[C@@H](C)O)C(C)C)C(=O)N[C@@H](CCCCNC(=O)CC[C@H](NC(=O)CC[C@H](NC(=O)COCCOCCNC(=O)COCCOCCNC(=O)CC[C@H](NC(=O)CCCCCCCCCCCCCCCCC(=O)O)C(=O)O)C(=O)O)C(=O)O)C(=O)N[C@H](C(N)=O)[C@@H](C)O` [Chem. 34, N^ε28-[(4S)-4-carboxy-4-[[(4S)-4-carboxy-4-[[2-[2-[2-[[2-[2-[2-[[(4S)-4-carboxy-4-(17-carboxyheptadecanoylamino)butanoyl]amino]ethoxy]ethoxy]acetyl]amino]ethoxy]ethoxy]acetyl]amino]butanoyl]amino]butanoyl]-[Aib2,Glu15,Ala24,Ile27,Lys28]-Glucagon amide] (H-H[Aib]QGTFTSDYSKYLESRRAQDFVAWLIK([γGlu-γGlu-AEEA-AEEA-γGlu-C18 diacid])T-NH2), the EC50 came to 66 pM.

Take `CC[C@H](C)[C@H](NC(=O)[C@H](CC(C)C)NC(=O)[C@H](Cc1c[nH]c2ccccc12)NC(=O)[C@H](CCC(N)=O)NC(=O)[C@@H](NC(=O)[C@H](Cc1ccccc1)NC(=O)[C@H](CCC(=O)O)NC(=O)[C@H](CCC(N)=O)NC(=O)[C@H](C)NC(=O)[C@H](CCCNC(=N)N)NC(=O)[C@H](CCCNC(=N)N)NC(=O)[C@H](CO)NC(=O)[C@H](CCC(=O)O)NC(=O)[C@H](CC(C)C)NC(=O)[C@H](Cc1ccc(O)cc1)NC(=O)[C@H](CCCCN)NC(=O)[C@H](CO)NC(=O)[C@H](CC(C)C)NC(=O)[C@H](CC(=O)O)NC(=O)[C@H](CO)NC(=O)[C@@H](NC(=O)[C@H](Cc1ccccc1)NC(=O)[C@@H](NC(=O)CNC(=O)[C@H](CCC(N)=O)NC(=O)C1(NC(=O)[C@@H](N)Cc2c[nH]cn2)CCC1)[C@@H](C)O)[C@@H](C)O)C(C)C)C(=O)N[C@@H](CCCCNC(=O)CC[C@H](NC(=O)COCCOCCNC(=O)COCCOCCNC(=O)CC[C@H](NC(=O)CC[C@H](NC(=O)CCCCCCCCCCCCCCCCC(=O)O)C(=O)O)C(=O)O)C(=O)O)C(=O)N[C@H](C(N)=O)[C@@H](C)O` [Chem. 38, N^ε28-[(4S)-4-carboxy-4-[[2-[2-[2-[[2-[2-[2-[[(4S)-4-carboxy-4-[[(4S)-4-carboxy-4-(17-carboxyheptadecanoylamino)butanoyl]amino]butanoyl]amino]ethoxy]ethoxy]acetyl]amino]ethoxy]ethoxy]acetyl]amino]butanoyl]-[Acb2,Leu10,Glu15,Glu21,Ile27,Lys28]-Glucagon amide] (H-H[Ac4c]QGTFTSDLSKYLESRRAQEFVQWLIK([γGlu-AEEA-AEEA-γGlu-γGlu-C18 diacid])T-NH2; N-terminus assumed): the EC50 is 12 pM.
